Test results published in ChEMBL document CHEMBL3867472, “Discovery of benzofuran propanoic acid GPR120 agonists: From uHTS hit to mechanism-based pharmacodynamic effects” (Bioorg Med Chem Lett, 2016).
Calls of active or inactive are those of the source. The rule behind the calls is not given here.

Assays:
[1] = Half life in mouse at 2 mg/kg, iv or 10 mg/kg, po; type: ADME, organism-based; settings: in vivo
[2] = molecular target: T1, Free fatty acid receptor 4 (Mus musculus) (UniProt Q7TMA4); test: Agonist activity at mouse GPR120 expressed in CHOK1 cells measured after 60 mins by IP1-HTRF assay relative to basal level; type: functional, cell-based; design: concentration or dose not given beside the values; settings: CHO-K1
T1 sequence (whole entry): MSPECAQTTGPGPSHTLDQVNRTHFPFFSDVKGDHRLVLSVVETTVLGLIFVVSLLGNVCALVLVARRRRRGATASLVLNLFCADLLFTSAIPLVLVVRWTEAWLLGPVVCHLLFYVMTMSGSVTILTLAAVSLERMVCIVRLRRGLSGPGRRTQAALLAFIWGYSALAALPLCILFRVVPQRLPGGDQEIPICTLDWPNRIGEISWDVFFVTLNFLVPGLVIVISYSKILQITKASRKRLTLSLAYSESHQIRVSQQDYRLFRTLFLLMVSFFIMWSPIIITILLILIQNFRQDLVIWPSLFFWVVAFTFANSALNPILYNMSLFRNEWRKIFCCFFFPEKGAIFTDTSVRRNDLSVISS

[3] = molecular target: T2, Free fatty acid receptor 4 (Homo sapiens) (UniProt Q5NUL3); test: Agonist activity at GPR120 (unknown origin) at 5 uM by PathHunter cell based assay
T2 sequence (whole entry): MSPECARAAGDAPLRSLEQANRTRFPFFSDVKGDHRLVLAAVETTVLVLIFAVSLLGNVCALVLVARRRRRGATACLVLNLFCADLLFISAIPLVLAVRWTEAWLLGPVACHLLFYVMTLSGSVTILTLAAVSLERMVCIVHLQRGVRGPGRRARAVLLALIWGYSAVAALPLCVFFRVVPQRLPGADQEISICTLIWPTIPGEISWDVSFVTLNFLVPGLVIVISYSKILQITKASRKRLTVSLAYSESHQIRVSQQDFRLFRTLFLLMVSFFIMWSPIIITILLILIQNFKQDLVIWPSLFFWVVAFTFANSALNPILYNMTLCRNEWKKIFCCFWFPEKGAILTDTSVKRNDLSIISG

[4] = molecular target: T2, Free fatty acid receptor 4 (Homo sapiens); test: Agonist activity at human GPR120 expressed in CHO-NFAT cells assessed as increase in calcium efflux at 5 uM by Fluo-4 dye-based FLIPR assay; type: functional, cell-based
[5] = Protein binding in mouse plasma; type: ADME, cell-free; settings: read-out: PPB (converted)
[6] = molecular target: T3, Free fatty acid receptor 1 (Homo sapiens, UniProt O14842); test: Agonist activity at human GPR40 measured after 60 mins by IP1-HTRF assay; type: functional
[7] = Clearance in mouse at 2 mg/kg, iv or 10 mg/kg, po; type: ADME, organism-based; settings: in vivo
[8] = molecular target: T2, Free fatty acid receptor 4 (Homo sapiens); test: Agonist activity at human GPR120 expressed in CHOK1 cells measured after 60 mins by IP1-HTRF assay relative to basal level; type: functional, cell-based; design: concentration or dose not given beside the values; settings: CHO-K1
[9] = molecular target: T4, Free fatty acid receptor 4 (Homo sapiens, UniProt Q5NUL3); test: Agonist activity at human GPR120 expressed in CHOK1 cells measured after 60 mins by IP1-HTRF assay; type: functional, cell-based, CHO-K1
T4 sequence (Q5NUL3 whole entry): T2 sequence (whole entry)

[10] = molecular target: T5, Free fatty acid receptor 4 (Mus musculus, UniProt Q7TMA4); test: Agonist activity at mouse GPR120 expressed in CHOK1 cells measured after 60 mins by IP1-HTRF assay; type: functional, cell-based, CHO-K1
T5 sequence (Q7TMA4 whole entry): T1 sequence (whole entry)

[11] = Oral bioavailability in mouse at 10 mg/kg; type: ADME, organism-based; settings: in vivo
[12] = Cmax in mouse at 2 mg/kg, iv or 10 mg/kg, po; type: ADME, organism-based; settings: in vivo
[13] = Volume of distribution in mouse at 2 mg/kg, iv or 10 mg/kg, po; type: ADME, organism-based; settings: in vivo
CHO-K1 = test: Effect on calcium efflux in CHOK1 cells at 5 uM by Fluo-4 dye-based FLIPR assay; type: functional, Cricetulus griseus
Cytochrome P450 3A4 = Cytochrome P450 3A4 (Homo sapiens, UniProt P08684); test: Inhibition of CYP3A4 (unknown origin); type: ADME
[14] = molecular target: Voltage-gated inwardly rectifying potassium channel KCNH2 (Homo sapiens, UniProt Q12809)
Cytochrome P450 2D6 = Cytochrome P450 2D6 (Homo sapiens, UniProt P10635); test: Inhibition of CYP2D6 (unknown origin); type: ADME
[15] = molecular target: Sodium channel protein type 5 subunit alpha (Homo sapiens, UniProt Q14524); test: Inhibition of Nav1.5 (unknown origin)
Cytochrome P450 2C9 = Cytochrome P450 2C9 (Homo sapiens, UniProt P11712); test: Inhibition of CYP2C9 (unknown origin); type: ADME
[16] = molecular target: T3, Free fatty acid receptor 1; test: Agonist activity at human GPR40 measured after 60 mins by IP1-HTRF assay relative to basal level; type: functional; design: concentration or dose not given beside the values
[17] = molecular target: Voltage-dependent L-type calcium channel subunit alpha-1C (Homo sapiens, UniProt Q13936); test: Inhibition of Cav1.2 (unknown origin)
Mus musculus [18] = test: Reduction of glucose excursion in GPR120 knockout mouse at 30 and 100 mg/kg, po by oral glucose tolerance test; type: functional, organism-based
[19] = Drug uptake in GPR120 knockout mouse blood at 100 mg/kg, po; type: ADME, organism-based; settings: in vivo, read-out: Drug uptake
[20] = Drug uptake in GPR120 knockout mouse blood at 30 mg/kg, po; type: ADME, organism-based; settings: in vivo, read-out: Drug uptake
[21] = Drug uptake in wild-type mouse blood at 30 mg/kg, po; type: ADME, organism-based; settings: in vivo, read-out: Drug uptake
Mus musculus [22] = test: In vivo agonist activity at GPR120 in wild-type mouse assessed as target engagement at 100 mg/kg, po; type: functional
[23] = Antidiabetic activity in wild-type mouse assessed as reduction in glucose excursion at 30 and 100 mg/kg, po by oral glucose tolerance test; type: functional, organism-based
[24] = Drug uptake in wild-type mouse blood at 100 mg/kg, po; type: ADME, organism-based; settings: in vivo, read-out: Drug uptake
Mus musculus [25] = test: In vivo agonist activity at GPR120 in wild-type mouse assessed as target engagement at 30 mg/kg, po; type: functional

T3 sequence (O14842 whole entry): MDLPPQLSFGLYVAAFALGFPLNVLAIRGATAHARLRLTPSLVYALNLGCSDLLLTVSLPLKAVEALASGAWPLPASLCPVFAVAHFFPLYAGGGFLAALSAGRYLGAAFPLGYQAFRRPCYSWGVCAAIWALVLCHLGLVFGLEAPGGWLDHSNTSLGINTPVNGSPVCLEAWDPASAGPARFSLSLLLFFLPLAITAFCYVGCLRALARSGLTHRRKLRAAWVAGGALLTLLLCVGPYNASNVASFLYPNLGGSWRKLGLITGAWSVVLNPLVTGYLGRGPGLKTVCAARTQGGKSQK
Cytochrome P450 2C9, sequence (P11712 whole entry): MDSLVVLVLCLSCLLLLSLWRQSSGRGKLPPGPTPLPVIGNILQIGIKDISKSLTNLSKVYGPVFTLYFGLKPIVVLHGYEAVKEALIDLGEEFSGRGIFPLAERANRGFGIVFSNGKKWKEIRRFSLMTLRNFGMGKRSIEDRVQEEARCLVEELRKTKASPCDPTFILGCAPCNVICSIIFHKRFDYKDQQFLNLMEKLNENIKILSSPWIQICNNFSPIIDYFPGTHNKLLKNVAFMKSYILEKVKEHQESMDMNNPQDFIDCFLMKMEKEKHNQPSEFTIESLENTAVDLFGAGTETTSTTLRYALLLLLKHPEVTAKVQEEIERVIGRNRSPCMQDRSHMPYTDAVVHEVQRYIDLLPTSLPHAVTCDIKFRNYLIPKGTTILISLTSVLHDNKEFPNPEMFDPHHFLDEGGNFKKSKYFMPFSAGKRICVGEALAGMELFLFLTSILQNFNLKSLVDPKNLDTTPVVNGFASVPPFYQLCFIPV
Cytochrome P450 3A4, sequence (P08684 whole entry): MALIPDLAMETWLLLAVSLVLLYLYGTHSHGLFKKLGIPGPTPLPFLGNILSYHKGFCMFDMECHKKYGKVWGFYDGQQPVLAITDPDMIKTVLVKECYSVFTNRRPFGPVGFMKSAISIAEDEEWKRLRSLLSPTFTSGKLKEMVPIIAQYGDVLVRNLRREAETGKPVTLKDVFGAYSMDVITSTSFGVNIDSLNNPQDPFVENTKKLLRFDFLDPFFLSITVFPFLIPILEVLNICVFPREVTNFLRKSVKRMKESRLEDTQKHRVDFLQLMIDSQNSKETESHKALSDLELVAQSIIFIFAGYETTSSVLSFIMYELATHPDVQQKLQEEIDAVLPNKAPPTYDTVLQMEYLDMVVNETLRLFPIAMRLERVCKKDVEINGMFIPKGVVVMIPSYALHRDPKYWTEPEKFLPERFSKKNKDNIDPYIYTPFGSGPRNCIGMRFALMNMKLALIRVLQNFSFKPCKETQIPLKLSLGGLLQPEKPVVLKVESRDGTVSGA
Sodium channel protein type 5 subunit alpha, sequence (Q14524 whole entry): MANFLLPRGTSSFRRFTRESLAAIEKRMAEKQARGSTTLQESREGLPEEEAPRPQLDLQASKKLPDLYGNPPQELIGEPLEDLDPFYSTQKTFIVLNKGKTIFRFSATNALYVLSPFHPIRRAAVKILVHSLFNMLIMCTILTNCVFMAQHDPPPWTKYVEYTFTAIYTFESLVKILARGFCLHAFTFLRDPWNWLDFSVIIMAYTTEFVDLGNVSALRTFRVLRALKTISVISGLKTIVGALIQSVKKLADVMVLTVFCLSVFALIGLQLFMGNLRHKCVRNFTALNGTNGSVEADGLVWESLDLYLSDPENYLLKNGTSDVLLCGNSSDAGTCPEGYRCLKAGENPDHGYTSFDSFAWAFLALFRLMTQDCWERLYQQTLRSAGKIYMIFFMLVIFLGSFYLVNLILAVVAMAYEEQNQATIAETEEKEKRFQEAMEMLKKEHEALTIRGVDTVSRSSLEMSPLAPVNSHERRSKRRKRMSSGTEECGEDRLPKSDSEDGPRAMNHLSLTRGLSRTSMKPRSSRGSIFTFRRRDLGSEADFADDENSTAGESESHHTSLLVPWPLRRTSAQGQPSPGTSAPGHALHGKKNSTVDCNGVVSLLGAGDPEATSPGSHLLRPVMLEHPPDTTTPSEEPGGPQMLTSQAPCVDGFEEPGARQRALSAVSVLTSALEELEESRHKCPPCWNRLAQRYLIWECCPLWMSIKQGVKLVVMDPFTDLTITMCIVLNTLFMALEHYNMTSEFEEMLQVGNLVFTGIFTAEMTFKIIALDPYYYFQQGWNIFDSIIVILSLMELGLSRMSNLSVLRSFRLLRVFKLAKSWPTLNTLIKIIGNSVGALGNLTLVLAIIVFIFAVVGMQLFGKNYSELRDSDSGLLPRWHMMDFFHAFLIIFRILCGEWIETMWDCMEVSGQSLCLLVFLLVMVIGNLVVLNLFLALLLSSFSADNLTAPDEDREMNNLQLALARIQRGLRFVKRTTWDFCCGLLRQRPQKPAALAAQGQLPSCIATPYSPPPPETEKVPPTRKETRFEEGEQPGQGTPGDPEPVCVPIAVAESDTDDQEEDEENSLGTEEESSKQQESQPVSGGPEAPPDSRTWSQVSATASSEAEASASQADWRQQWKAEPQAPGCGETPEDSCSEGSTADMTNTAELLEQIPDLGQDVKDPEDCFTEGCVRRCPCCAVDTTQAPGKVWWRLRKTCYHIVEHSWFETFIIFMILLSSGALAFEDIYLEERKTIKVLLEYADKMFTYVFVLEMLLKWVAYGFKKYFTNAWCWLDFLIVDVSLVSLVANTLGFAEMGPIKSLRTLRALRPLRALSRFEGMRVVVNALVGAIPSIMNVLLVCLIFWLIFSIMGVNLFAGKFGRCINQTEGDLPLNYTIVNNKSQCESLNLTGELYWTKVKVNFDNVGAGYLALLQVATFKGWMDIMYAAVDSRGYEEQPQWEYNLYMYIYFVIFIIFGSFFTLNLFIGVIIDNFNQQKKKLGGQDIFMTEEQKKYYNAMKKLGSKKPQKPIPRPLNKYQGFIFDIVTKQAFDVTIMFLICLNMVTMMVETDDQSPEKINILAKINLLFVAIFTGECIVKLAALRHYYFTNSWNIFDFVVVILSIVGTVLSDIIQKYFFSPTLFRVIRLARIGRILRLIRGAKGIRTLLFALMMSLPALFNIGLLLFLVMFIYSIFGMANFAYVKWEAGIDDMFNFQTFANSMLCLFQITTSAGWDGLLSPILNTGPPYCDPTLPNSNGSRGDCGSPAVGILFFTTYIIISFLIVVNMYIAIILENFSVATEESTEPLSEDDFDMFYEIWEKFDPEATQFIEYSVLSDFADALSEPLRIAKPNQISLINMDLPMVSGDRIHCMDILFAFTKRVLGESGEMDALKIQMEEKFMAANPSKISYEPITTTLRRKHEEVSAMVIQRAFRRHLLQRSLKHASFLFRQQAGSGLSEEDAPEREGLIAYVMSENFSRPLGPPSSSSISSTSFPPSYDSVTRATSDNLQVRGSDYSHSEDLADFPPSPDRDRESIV
Cytochrome P450 2D6, sequence (P10635 whole entry): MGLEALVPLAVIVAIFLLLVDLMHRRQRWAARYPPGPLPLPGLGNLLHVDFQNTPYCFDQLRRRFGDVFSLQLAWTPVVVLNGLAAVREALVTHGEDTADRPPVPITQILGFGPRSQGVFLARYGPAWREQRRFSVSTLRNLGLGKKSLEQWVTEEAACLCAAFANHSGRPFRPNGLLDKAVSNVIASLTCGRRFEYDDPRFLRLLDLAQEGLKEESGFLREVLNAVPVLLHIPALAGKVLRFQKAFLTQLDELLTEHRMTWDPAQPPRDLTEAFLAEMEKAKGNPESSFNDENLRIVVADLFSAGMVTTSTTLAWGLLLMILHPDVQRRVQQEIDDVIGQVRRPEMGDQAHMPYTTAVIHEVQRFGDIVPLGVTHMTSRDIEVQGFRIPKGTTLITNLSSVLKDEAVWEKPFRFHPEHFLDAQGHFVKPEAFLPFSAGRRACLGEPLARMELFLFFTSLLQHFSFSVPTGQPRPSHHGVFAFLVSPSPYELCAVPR
Voltage-gated inwardly rectifying potassium channel KCNH2, sequence (Q12809 whole entry): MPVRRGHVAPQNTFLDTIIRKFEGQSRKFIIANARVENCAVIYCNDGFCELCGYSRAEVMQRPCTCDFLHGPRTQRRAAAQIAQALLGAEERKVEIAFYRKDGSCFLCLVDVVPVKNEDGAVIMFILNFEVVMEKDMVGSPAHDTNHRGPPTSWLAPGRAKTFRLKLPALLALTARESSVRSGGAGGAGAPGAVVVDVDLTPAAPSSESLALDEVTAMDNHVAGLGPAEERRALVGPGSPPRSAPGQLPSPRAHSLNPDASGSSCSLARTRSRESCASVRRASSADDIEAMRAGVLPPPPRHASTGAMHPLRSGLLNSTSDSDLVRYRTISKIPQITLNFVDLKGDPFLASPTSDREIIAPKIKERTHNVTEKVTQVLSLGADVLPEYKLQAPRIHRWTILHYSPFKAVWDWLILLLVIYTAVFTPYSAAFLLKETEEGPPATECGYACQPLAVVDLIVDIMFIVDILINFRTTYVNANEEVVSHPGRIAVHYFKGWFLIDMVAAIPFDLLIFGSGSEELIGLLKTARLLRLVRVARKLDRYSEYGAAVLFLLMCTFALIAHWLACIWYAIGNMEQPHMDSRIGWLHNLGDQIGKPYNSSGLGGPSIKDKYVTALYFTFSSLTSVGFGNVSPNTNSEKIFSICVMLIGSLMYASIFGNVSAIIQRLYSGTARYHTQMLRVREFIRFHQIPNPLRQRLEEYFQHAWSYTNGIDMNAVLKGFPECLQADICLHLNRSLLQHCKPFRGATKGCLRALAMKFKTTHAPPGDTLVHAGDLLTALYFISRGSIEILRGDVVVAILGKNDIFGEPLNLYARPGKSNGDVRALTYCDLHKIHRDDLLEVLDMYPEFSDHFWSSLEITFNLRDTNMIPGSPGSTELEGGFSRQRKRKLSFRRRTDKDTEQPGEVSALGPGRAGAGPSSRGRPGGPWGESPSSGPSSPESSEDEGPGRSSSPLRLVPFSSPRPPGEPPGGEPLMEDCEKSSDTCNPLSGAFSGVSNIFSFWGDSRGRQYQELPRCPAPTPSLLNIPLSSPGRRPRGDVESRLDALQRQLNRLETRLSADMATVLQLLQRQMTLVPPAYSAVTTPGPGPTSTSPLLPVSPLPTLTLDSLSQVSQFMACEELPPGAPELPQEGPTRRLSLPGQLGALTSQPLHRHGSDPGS

half-life [1] [h]	Activity [2] [%]	fraction unbound [5]	EC50 [6] [µM]	clearance [7] [mL/min/kg]	Activity [8] [%]	EC50 [9] [µM]	EC50 [10] [µM]	bioavailability [11] [%]	Cmax [12] [µM]	Vd [13] [L/kg]	IC50 (Cytochrome P450 3A4) [µM]	IC50 (Cytochrome P450 2D6) [µM]	IC50 (Cytochrome P450 2C9) [µM]	Activity [16] [%]	Compound	IC50 [15] [µM]	IC50 [17] [µM]	further results
3.3	29	0.042	> 9.95	24	24	0.474	0.487	97	4.64	5.6	–	–	–	–	O=C(O)CCCOc1ccc(-c2noc3ccccc23)c(Cl)c1Cl	–	–	Activity [3]: Active; Activity [4]: > 11%; Activity (CHO-K1): <10%
1.3	64	0.049	1.04	17	71	0.057	0.009	45	2.38	1.86	> 50	> 50	33	40	O=C(O)CCCOc1ccc(-c2cc(OC(F)(F)F)ccc2Cl)cc1	17.4	> 30	IC50 [14]: > 60 µM
1.6	75	0.002	1.83	20	73	0.063	0.043	100	8.17	3	> 50	> 50	38.3	38	O=C(O)CCc1cc2cc(-c3cc(OC(F)(F)F)ccc3F)ccc2o1	> 30	15.1	Activity (Mus musculus [18]): Active; concentration [19]: 23 µM; concentration [20]: 24.8 µM; concentration [21]: 33.4 µM; Activity (Mus musculus [22]): 68%; Activity [23]: Active; concentration [24]: 45.1 µM; Activity (Mus musculus [25]): 40%
